Source: US8598147B2, “Synergistic antimicrobial composition” (Dow Global Technologies LLC, priority 2009, dated 2013)

How the values were obtained:
[1] = tested on: oilfield SRB consortium; assay: Biocidal efficacy against anaerobic bacteria for a high temperature and sulfide-rich environment (dosage for 99.999% bacterial reduction); type: cell-based, sulfate reducing bacteria (SRB); details: 80° C., 7 days, daily challenge of SRB consortium and 10 ppm sulfide ion
Experimental: Inside an anaerobic chamber (BACTRON IV), biocides solutions were challenged with 10^4 to 10^5CFU/mL of an oilfield SRB consortium and 10 ppm sulfide ion (added in the form of sodium sulfide). The biocide solutions were then incubated at 80° C. under anaerobic condition for 7 days, with daily challenge of the SRB consortium (10^4 to 10^5CFU/mL) and sulfide ion (10 ppm). Then the biocidal efficacy was evaluated against the field SRB consortium at 2 hours and 7 days. The biocidal efficacy was determined by the biocide dosage required for 99.999% bacterial reduction. Synergy Index was then calculated. Table 2 summarizes the efficacy of each biocide and their blends, and the Synergy Index of each combination.

[2] = tested on: oil field isolated anaerobic consortium, mainly SRB; assay: Biocidal efficacy (MBC, complete bacteria kill) of THPS, CTAC and THPS/CTAC combination against sulfate reducing bacteria; type: cell-based, sulfate reducing bacteria (SRB)
Experimental: Inside an anaerobic chamber (BACTRON anaerobic chamber), a deaerated sterile salt solution (3.1183 g of NaCl, 1.3082 mg of NaHCO3, 47.70 mg of KCl, 72.00 mg of CaCl2, 54.49 mg of MgSO4, 172.28 mg of Na2SO4, 43.92 mg of Na2CO3 in 1 L water) was contaminated with an oil field isolated anaerobic consortium, mainly SRB, at final bacterial concentrations of 10^6 to 10^7 CFU/mL.

Compound | Concentration (active ppm) required for 99.999% bacterial reduction THPS ([1]; THPS concentration (alone or within the blend)) [active ppm] | MBC (active ppm) THPS [2] [active ppm] | Concentration (active ppm) required for 99.999% bacterial reduction CTAC ([1]; CTAC concentration (alone or within the blend)) [active ppm] | MBC (active ppm) CTAC ([2]; CTAC concentration (alone or within the blend) for complete bacteria kill, 40° C., 24 hour, anaerobic, 10^6 to 10^7 CFU/mL) [active ppm]
tetrakis(hydroxymethyl)phosphonium sulfate [THPS] | 45.0 | 4.1 | – | –
Cl/C=C\C[N+]12CN3CN(CN(C3)C1)C2.[Cl-] [CTAC, cis-1-(3-chloroallyl)-3,5,7-triaza-1-azoniaadamantane chloride] | – | – | 180 | 31.1
